Data published in PubChem BioAssay AID1918996 (Molecular Pharmacology Branch, DTP, NCI, 2023).
Several values for one entry are separate records, joined by “and”; a condition that tells them apart may be missing. Identical values can stand only once.

System: 349418-098-R-PDC complex spheroid growth
Assay: Anticancer human tumor 349418-098-R-PDC patient-derived lung adenocarcinoma cell line growth inhibition [AhR]
Settings: for viability, T/C: stronger effect = lower value
Method in brief: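 Spheroids combined tumor cells with HUVEC endothelial cells and human MSCs as stroma. AhR antagonists were paired with standard or investigational drugs, each dosed in half-log steps down from near clinical Cmax, or from 10 microM where Cmax was unknown.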

[1] = curve of first compound, second compound 0.1 µM
[2] = curve of first compound, second compound 0.316 µM
[3] = curve of first compound, second compound 1 µM
[4] = curve of first compound, second compound 3.16 µM
[5] = curve of first compound, second compound 10 µM
[6] = second compound 0.1 µM, first compound 0.0316 µM
[7] = second compound 0.1 µM, first compound 0.1 µM
[8] = second compound 0.1 µM, first compound 0.316 µM
[9] = second compound 0.1 µM, first compound 1 µM
[10] = second compound 0.1 µM, first compound 3.16 µM
[11] = second compound 0.1 µM, first compound 10 µM
[12] = second compound 0.316 µM, first compound 0.0316 µM
[13] = second compound 0.316 µM, first compound 0.1 µM
[14] = second compound 0.316 µM, first compound 0.316 µM
[15] = second compound 0.316 µM, first compound 1 µM
[16] = second compound 0.316 µM, first compound 3.16 µM
[17] = second compound 0.316 µM, first compound 10 µM
[18] = second compound 1 µM, first compound 0.0316 µM
[19] = second compound 1 µM, first compound 0.1 µM
[20] = second compound 1 µM, first compound 0.316 µM
[21] = second compound 1 µM, first compound 1 µM
[22] = second compound 1 µM, first compound 3.16 µM
[23] = second compound 1 µM, first compound 10 µM
[24] = second compound 3.16 µM, first compound 0.0316 µM
[25] = second compound 3.16 µM, first compound 0.1 µM
[26] = second compound 3.16 µM, first compound 0.316 µM
[27] = second compound 3.16 µM, first compound 1 µM
[28] = second compound 3.16 µM, first compound 3.16 µM
[29] = second compound 3.16 µM, first compound 10 µM
[30] = second compound 10 µM, first compound 0.0316 µM
[31] = second compound 10 µM, first compound 0.1 µM
[32] = second compound 10 µM, first compound 0.316 µM
[33] = second compound 10 µM, first compound 1 µM
[34] = second compound 10 µM, first compound 3.16 µM
[35] = second compound 10 µM, first compound 10 µM
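Also: spheroids exposed to agents for seven days before luminescence viability read.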
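For viability, T/C in this document: spheroids also contain HUVEC endothelial cells and human MSC stroma.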

For `O=C(c1cc(Cc2n[nH]c(=O)c3ccccc23)ccc1F)N1CCN(C(=O)C2CC2)CC1` + Cc1ccccc1N=Nc1ccc(NC(=O)c2ccnn2C)c(C)c1, the IC50 [1] was 2020 nM, the IC50 [2] was 6200 nM and the IC50 [3] was 2810 nM. It also gave an IC50 [4] of 661 nM, an IC50 [5] of 1430 nM and a viability, T/C [6] of 81.3%. For the same compound, the viability, T/C [7] was 73.2%, the viability, T/C [8] was 91.4% and the viability, T/C [9] was 62.1%. For the same compound, the viability, T/C [10] was 44.9%, the viability, T/C [11] was 39.6% and the viability, T/C [12] was 98%. For the same compound, the viability, T/C [13] was 89%, the viability, T/C [14] was 108% and the viability, T/C [15] was 64%. It also gave a viability, T/C [16] of 66.3%, a viability, T/C [17] of 41.4% and a viability, T/C [18] of 106%. It also gave a viability, T/C [19] of 82.4%, a viability, T/C [20] of 69.7% and a viability, T/C [21] of 62.8%. The viability, T/C [22] was 49.4%, the viability, T/C [23] was 39.9% and the viability, T/C [24] was 76.9%. For the same compound, the viability, T/C [25] was 69.9%, the viability, T/C [26] was 63.4% and the viability, T/C [27] was 41.8%. The viability, T/C [28] was 41.3%, the viability, T/C [29] was 43% and the viability, T/C [30] was 56.4%. The viability, T/C [31] was 53.1%, the viability, T/C [32] was 50.9% and the viability, T/C [33] was 60.1%. For the same compound, the viability, T/C [34] was 38.8% and the viability, T/C [35] was 31.4%.
`CC1COCCN1c1cc(-c2ccnn2C)c2ccnc(-c3ccn[nH]3)c2n1` (configuration not stated) + CC(CO)NC(=O)c1cc(-c2ccc(Cl)cc2)nn(-c2cnn(C)c2)c1=O gave an IC50 [1] of 79.1 nM, an IC50 [2] of 68.8 nM and an IC50 [3] of 82.3 nM. For the same compound, the IC50 [4] was 67.4 nM, the IC50 [5] was 52.9 nM and the viability, T/C (second compound 0.1 µM, first compound 0.00316 µM) was 90.3%. For the same compound, the viability, T/C (second compound 0.1 µM, first compound 0.01 µM) was 99.2%, the viability, T/C [6] was 81.9% and the viability, T/C [7] was 41.9%. For the same compound, the viability, T/C [8] was 14.2%, the viability, T/C [9] was 10.3% and the viability, T/C (second compound 0.316 µM, first compound 0.00316 µM) was 87.4%. The viability, T/C (second compound 0.316 µM, first compound 0.01 µM) was 92.3%, the viability, T/C [12] was 89.1% and the viability, T/C [13] was 31.2%. For the same compound, the viability, T/C [14] was 15.8%, the viability, T/C [15] was 9.1% and the viability, T/C (second compound 1 µM, first compound 0.00316 µM) was 112%. The viability, T/C (second compound 1 µM, first compound 0.01 µM) was 128%, the viability, T/C [18] was 91.6% and the viability, T/C [19] was 42.2%. The viability, T/C [20] was 16.6%, the viability, T/C [21] was 10.9% and the viability, T/C (second compound 3.16 µM, first compound 0.00316 µM) was 67.7%. The viability, T/C (second compound 3.16 µM, first compound 0.01 µM) was 96.1%, the viability, T/C [24] was 85.3% and the viability, T/C [25] was 32.8%. The viability, T/C [26] was 15.8%, the viability, T/C [27] was 12% and the viability, T/C (second compound 10 µM, first compound 0.00316 µM) was 62.8%. For the same compound, the viability, T/C (second compound 10 µM, first compound 0.01 µM) was 94%, the viability, T/C [30] was 69.1% and the viability, T/C [31] was 25.2%. It also gave a viability, T/C [32] of 14.2% and a viability, T/C [33] of 10.1%.
For `COc1cccc2c1C(=O)c1c(O)c3c(c(O)c1C2=O)CC(O)(C(=O)CO)CC3OC1CC(N)C(O)C(C)O1` (configuration not stated) + CC(CO)NC(=O)c1cc(-c2ccc(Cl)cc2)nn(-c2cnn(C)c2)c1=O, the IC50 [1] was < 31.6 nM, the IC50 [2] was < 31.6 nM and the IC50 [3] was < 31.6 nM. The IC50 [4] was < 31.6 nM, the IC50 [5] was < 31.6 nM and the viability, T/C [6] was 21.8%. It also gave a viability, T/C [7] of 13.4%, a viability, T/C [8] of 3.76% and a viability, T/C [9] of 0.59%. It also gave a viability, T/C [10] of 2.28%, a viability, T/C [11] of 5.15% and a viability, T/C [12] of 26.6%. The viability, T/C [13] was 13.2%, the viability, T/C [14] was 3.63% and the viability, T/C [15] was 0.47%. For the same compound, the viability, T/C [16] was 3.14%, the viability, T/C [17] was 5.48% and the viability, T/C [18] was 25%. It also gave a viability, T/C [19] of 14.7%, a viability, T/C [20] of 3.05% and a viability, T/C [21] of 0.52%. For the same compound, the viability, T/C [22] was 3.58%, the viability, T/C [23] was 5.75% and the viability, T/C [24] was 19.6%. It also gave a viability, T/C [25] of 14.4%, a viability, T/C [26] of 2.92% and a viability, T/C [27] of 0.71%. The viability, T/C [28] was 2.73%, the viability, T/C [29] was 5.34% and the viability, T/C [30] was 18.5%. It also gave a viability, T/C [31] of 12.3%, a viability, T/C [32] of 1.49% and a viability, T/C [33] of 1.33%. The viability, T/C [34] was 3.87% and the viability, T/C [35] was 6.78%.
With `COc1cccc2c1C(=O)c1c(O)c3c(c(O)c1C2=O)CC(O)(C(=O)CO)CC3OC1CC(N)C(O)C(C)O1` (configuration not stated) + Cc1cncc(-c2nc(NCCc3c[nH]c4ccccc34)c3ncn(C(C)C)c3n2)c1 the IC50 [1] was < 31.6 nM, the IC50 [2] was < 31.6 nM and the IC50 [3] was < 31.6 nM. For the same compound, the IC50 [4] was < 31.6 nM, the IC50 [5] was < 31.6 nM and the viability, T/C [6] was 12.1%. It also gave a viability, T/C [7] of 6.61%, a viability, T/C [8] of 1.44% and a viability, T/C [9] of 0.29%. It also gave a viability, T/C [10] of 2.68%, a viability, T/C [11] of 3.48% and a viability, T/C [12] of 11.5%. The viability, T/C [13] was 6.41%, the viability, T/C [14] was 1.16% and the viability, T/C [15] was 0.42%. For the same compound, the viability, T/C [16] was 2.47%, the viability, T/C [17] was 4% and the viability, T/C [18] was 10.5%. The viability, T/C [19] was 4.41%, the viability, T/C [20] was 1.26% and the viability, T/C [21] was 0.31%. For the same compound, the viability, T/C [22] was 2.61%, the viability, T/C [23] was 3.54% and the viability, T/C [24] was 4.44%. For the same compound, the viability, T/C [25] was 3.03%, the viability, T/C [26] was 0.5% and the viability, T/C [27] was 0.32%. The viability, T/C [28] was 2.14%, the viability, T/C [29] was 3.34% and the viability, T/C [30] was 0.79%. The viability, T/C [31] was 0.69%, the viability, T/C [32] was 0.23% and the viability, T/C [33] was 0.5%. For the same compound, the viability, T/C [34] was 1.35% and the viability, T/C [35] was 1.99%.
For `Nc1ccn(C2OC(CO)C(O)C2(F)F)c(=O)n1` (configuration not stated) + Cc1cncc(-c2nc(NCCc3c[nH]c4ccccc34)c3ncn(C(C)C)c3n2)c1, the IC50 [1] was < 31.6 nM, the IC50 [2] was < 31.6 nM and the IC50 [3] was < 31.6 nM. The IC50 [4] was < 31.6 nM, the IC50 [5] was < 31.6 nM and the viability, T/C [6] was 5.21%. It also gave a viability, T/C [7] of 5.33%, a viability, T/C [8] of 4.29% and a viability, T/C [9] of 4.06%. The viability, T/C [10] was 3.79%, the viability, T/C [11] was 3.29% and the viability, T/C [12] was 5.26%. The viability, T/C [13] was 5.35%, the viability, T/C [14] was 4.46% and the viability, T/C [15] was 4.46%. It also gave a viability, T/C [16] of 3.84%, a viability, T/C [17] of 3.1% and a viability, T/C [18] of 5.67%. It also gave a viability, T/C [19] of 5.73%, a viability, T/C [20] of 5.73% and a viability, T/C [21] of 4.6%. It also gave a viability, T/C [22] of 6.45%, a viability, T/C [23] of 3.8% and a viability, T/C [24] of 8.15%. It also gave a viability, T/C [25] of 6.5%, a viability, T/C [26] of 5.64% and a viability, T/C [27] of 4.25%. It also gave a viability, T/C [28] of 4.89%, a viability, T/C [29] of 3.39% and a viability, T/C [30] of 4.66%. The viability, T/C [31] was 3.51%, the viability, T/C [32] was 3.29% and the viability, T/C [33] was 4.08%. For the same compound, the viability, T/C [34] was 2.99% and the viability, T/C [35] was 2.51%.
`CC1COCCN1c1cc(-c2ccnn2C)c2ccnc(-c3ccn[nH]3)c2n1` (configuration not stated) was tested, and the viability, T/C (compound 0.00316 µM) was 107% and 93.3% and 81%, the viability, T/C (compound 0.01 µM) was 106% and 116% and 95.6% and the viability, T/C (compound 0.0316 µM) was 96.8% and 76.4% and 101%. For the same compound, the viability, T/C (compound 0.1 µM) was 64% and 45.4% and 42.6%, the viability, T/C (compound 0.316 µM) was 18.7% and 15.7% and 14.7% and the viability, T/C (compound 1 µM) was 7.38% and 10.8% and 9.29%. The IC50 (curve of compound) was 142 nM and 80.8 nM and 84.4 nM.
